Assay results taken from ChEMBL document CHEMBL4359828, “Back to the future: Advances in development of broad-spectrum capsid-binding inhibitors of enteroviruses” (Eur J Med Chem, 2019).

Tests used:
[1] = test system: rhinovirus B14; test: Antiviral activity against Human rhinovirus B14; type: functional, organism-based; conditions: Rhinovirus B
[2] = test system: Coxsackievirus B3; test: Antiviral activity against Coxsackievirus B3; type: functional, organism-based; conditions: Enterovirus B
[3] = test system: rhinovirus A2; test: Antiviral activity against Human rhinovirus A2; type: functional, organism-based; conditions: Rhinovirus A
[4] = test system: Poliovirus 2; test: Antiviral activity against Human poliovirus 2; type: functional, organism-based; conditions: Enterovirus C
[5] = Antiviral activity against Human rhinovirus B3; type: functional
[6] = test system: rhinovirus B5; test: Antiviral activity against Human rhinovirus B5; type: functional, organism-based; conditions: Rhinovirus B
[7] = test system: Enterovirus A71; test: Antiviral activity against Enterovirus A71; type: functional, organism-based; conditions: Enterovirus A
[8] = test system: Enterovirus; test: Antiviral activity against Rhinovirus; type: functional, organism-based
[9] = test system: Human rhinovirus sp.; test: Antiviral activity against Human rhinovirus clinical isolates; type: functional, organism-based
[10] = test system: Enterovirus C; test: Antiviral activity against Poliovirus assessed as reduction in virus induced cytopathic effect; type: functional, organism-based
[11] = test system: Human rhinovirus sp.; test: Antiviral activity against Human rhinovirus clinical isolates relative to control; type: functional
[12] = test system: Enterovirus C; test: Antiviral activity against Poliovirus; type: functional, organism-based
[13] = test system: Enterovirus C; test: Antiviral activity against Poliovirus assessed as reduction in virus induced cytopathic effect relative to control; type: functional
[14] = test system: Poliovirus 2; test: Antiviral activity against Human poliovirus 2 relative to control; type: functional
[15] = Antiviral activity against Echovirus-3; type: functional, Echovirus E3
[16] = test system: Echovirus E11; test: Antiviral activity against Echovirus-11; type: functional, organism-based; conditions: Enterovirus B
[17] = test system: Poliovirus 2; test: Antiviral activity against Human poliovirus 2 infected in mouse; type: functional, organism-based; conditions: Enterovirus C
[18] = Antiviral activity against Human rhinovirus B48; type: functional
[19] = Antiviral activity against Human rhinovirus B42; type: functional
[20] = Antiviral activity against Human rhinovirus A8; type: functional
[21] = test system: Echovirus E9; test: Antiviral activity against Echovirus 9; type: functional, organism-based; conditions: Enterovirus B
[22] = test system: Coxsackievirus A24; test: Antiviral activity against Coxsackievirus A24; type: functional, organism-based; conditions: Enterovirus C
[23] = test system: Enterovirus A71; test: Antiviral activity against Enterovirus A71 genotype A; type: functional, organism-based
[24] = test system: enterovirus D68; test: Antiviral activity against Enterovirus D68; type: functional, organism-based; conditions: Enterovirus D
[25] = test system: Coxsackievirus A9; test: Antiviral activity against Coxsackievirus A9; type: functional, organism-based; conditions: Enterovirus B
[26] = test system: Enterovirus A71; test: Antiviral activity against Enterovirus A71 genotype B; type: functional, organism-based; conditions: Enterovirus A
[27] = test system: Enterovirus A71; test: Antiviral activity against Enterovirus A71 genotype C; type: functional, organism-based; conditions: Enterovirus A
[28] = test system: Enterovirus; test: Antiviral activity against Rhinovirus at 32 uM relative to control; type: functional
[29] = test system: HeLa; test: Cytotoxicity against human HeLa cells after 3 days by MTT assay; type: functional, cell-based; conditions: 72 h
[30] = test system: Enterovirus; test: Antiviral activity against Enterovirus clinical isolate; type: functional, organism-based

## Cc1cc(CCCCCOc2c(Cl)cc(-c3ccc(Cl)o3)cc2Cl)on1
[1]
  IC50: 2 µM

## Cc1cc(CCCOc2c(C)cc(-c3cccc4ccccc34)cc2C)on1
[2]
  IC50: 1.34 µM
[3]
  IC50: 0.009 µM

## Cc1cc(CCCCCCCOc2ccc(C3=NC(C)(C)CO3)cc2)on1
[4]
  IC50: 0.1 to 0.12 µM
[3]
  IC50: 0.04 to 0.06 µM

## Cc1cc(CCCOc2c(C)cc(-c3ccc(-c4ccccc4)cc3)cc2C)on1
[2]
  IC50: 1.34 µM
[3]
  IC50: 0.009 µM

## Cc1cc(CCCCCOc2c(Cl)cc(-c3ncco3)cc2Cl)on1
[1]
  IC50: 1.83 µM

## Cc1cc(CCCOc2c(C)cc(-c3ccc(O)cc3)cc2C)on1
[5]
  IC50: 0.77 µM
[6]
  IC50: 0.77 µM

## Cc1cc(CCCCCOc2c(Cl)cc(-c3ccc(C)o3)cc2Cl)on1
[1]
  IC50: 2.64 µM

## Cc1cc(CCCOc2c(C)cc(-c3ccc(F)cc3)cc2C)on1
[2]
  IC50: 1.34 µM
[5]
  IC50: 0.12 µM
[3]
  IC50: 0.009 µM
[6]
  IC50: 0.11 µM

## Cc1cc(CCCOc2c(C)cc(-c3ccc([N+](=O)[O-])cc3)cc2C)on1
[5]
  IC50: 0.76 µM
[6]
  IC50: 0.76 µM

## Cc1cc(CCCCCOc2ccc(C3=NCCO3)cc2)on1
[4]
  IC50: 0.003 µM
[3]
  IC50: 0.1 to 0.12 µM

## CCc1nc(-c2ccc(OCCC(C)CCN3CCN(c4ccncc4)C3=O)cc2)no1 (centres undefined)
[7]
  EC50: 0.0005 µM

## Cc1cc(CCCOc2c(C)cc(-c3ccc(C)c(C)c3)cc2C)on1
[2]
  IC50: 1.34 µM
[3]
  IC50: 0.009 µM

## Cc1cc(CCCCCOc2c(Cl)cc(-c3ccc(C)s3)cc2Cl)on1
[1]
  IC50: 5.2 µM

## Cc1cc(CCCCCCCOc2ccc(C3=NC(CO)CO3)cc2)on1 (centres undefined)
[4]
  IC50: 0.9 to 2.6 µM
[3]
  IC50: 0.9 to 2.6 µM

## COc1ccc(OCCCCCCn2ccnc2)c(Cl)c1
[8]; Enterovirus
  EC50: 10.2 to 29.1 µM

## COc1cc(-c2cc(C)c(OCCCc3cc(C)no3)c(C)c2)cc(OC)c1OC
[2]
  IC50: 1.34 µM
[3]
  IC50: 0.009 µM

## Cc1cc(CCCOc2c(C)cc(-c3cc(C(F)(F)F)cc(C(F)(F)F)c3)cc2C)on1
[2]
  IC50: 1.34 µM
[3]
  IC50: 0.009 µM

## COc1ccc(OCc2ccc(COc3c(Cl)cccc3Cl)cc2)c(Cl)c1
[9]
  EC50: 0.9 µM
[10]
  EC50: 0.003 to 0.126 µM
[11]
  Activity: 80%
[4]
  EC50: 0.9 µM
[12]
  EC50: < 0.076 µM
[13]
  inhibition (INH): 90%
[14]
  Activity: 80%

## Cc1cc(CCCCCOc2c(Cl)cc(-c3ccc(Cl)s3)cc2Cl)on1
[1]
  IC50: 5.3 µM

## COc1ccc(OCCCCCCCc2cc(C)no2)c(Cl)c1
[15]
  IC50: 0.04 to 0.15 µM
[16]
  IC50: 0.04 to 0.15 µM
[17]
  IC50: 0.04 to 0.15 µM
[8]; Enterovirus
  IC50: 0.01 to 5.8 µM

## Cc1cc(CCCOc2c(C)cc(-c3ccc(C(F)(F)F)cc3)cc2C)on1
[2]
  IC50: 1.34 µM
[3]
  IC50: 0.009 µM

## Cc1cc(CCCOc2c(C)cc(-c3ccc(OC(F)(F)F)cc3)cc2C)on1
[2]
  IC50: 1.34 µM
[3]
  IC50: 0.009 µM

## Cc1cc(CCCOc2c(C)cc(-c3cccc(O)c3)cc2C)on1
[5]
  IC50: 0.44 µM
[6]
  IC50: 0.44 µM

## Cc1cc(CCCCCOc2c(Cl)cc(-c3ccco3)cc2Cl)on1
[1]
  IC50: 0.71 µM

## Cc1cc(CCCOc2c(C)cc(-c3cccc(C(F)(F)F)c3)cc2C)on1
[2]
  IC50: 1.34 µM
[3]
  IC50: 0.009 µM

## Cc1cc(CCCCCCCOc2ccc(C3=NCCO3)cc2)on1 [DISOXARIL]
[4]
  IC50: 0.004 µM
[8]
  IC50: 0.004 to 6.2 µM
[3]
  IC50: 0.004 µM

## Cc1cc(CCCOc2c(C)cc(-c3ccc(Cl)cc3)cc2C)on1
[5]
  IC50: 0.12 µM
[6]
  IC50: 0.11 µM

## Cc1cc(CCCOc2c(C)cc(-c3ccccc3F)cc2C)on1
[5]
  IC50: 0.12 µM
[6]
  IC50: 0.11 µM

## COc1ccc(OCc2ccc(COc3ccc(OC)cc3Cl)cc2)c(Cl)c1
[8]; Enterovirus
  EC50: 0.01 µM

## Cc1cc(CCCCCCOc2ccc(C3=NCCO3)cc2)on1
[4]
  IC50: 0.008 µM
[3]
  IC50: 0.1 to 0.12 µM

## Nc1nc(-c2ccccc2)nc2[nH]nc(Nc3ccc(C(F)(F)F)cc3)c12
[2]
  IC50: 0.04 to 0.64 µM
[3]
  IC50: 0.04 to 0.64 µM
[18]
  IC50: 0.04 to 0.64 µM
[19]
  IC50: 0.04 to 0.64 µM
[6]
  IC50: 0.04 to 0.64 µM
[20]
  IC50: 0.04 to 0.64 µM

## Cc1cc(CCCOc2c(C)cc(-c3cccc(F)c3)cc2C)on1
[2]
  IC50: 1.34 µM
[3]
  IC50: 0.009 µM

## O=C1N(CCCCCOc2ccc(Br)cc2)CCN1c1ccncc1
[21]
  IC50: 2.6 µM
[22]
  IC50: 0.47 to 0.55 µM
[23]
  IC50: 0.3 to 1.6 µM
[24]
  IC50: 2.13 µM
[25]
  IC50: 0.47 to 0.55 µM
[26]
  IC50: 0.3 to 1.6 µM
[27]
  IC50: 0.3 to 1.6 µM

## Cc1cc(CCCCCCCOc2ccc(C3=NCC(CO)O3)cc2)on1 (centres undefined)
[4]
  IC50: 0.9 to 2.6 µM
[3]
  IC50: 0.9 to 2.6 µM

## Cc1ccc(-c2cc(C)c(OCCCc3cc(C)no3)c(C)c2)cc1
[5]
  IC50: 0.12 µM
[6]
  IC50: 0.11 µM

## COc1ccc(N2CCN(c3cccc(C)c3)CC2)nn1
[28]
  inhibition at 32 µM: 80%

## Cc1cc(CCCOc2c(C)cc(-c3cccc([N+](=O)[O-])c3)cc2C)on1
[5]
  IC50: 0.35 µM
[6]
  IC50: 0.35 µM

## Cc1cc(CCCCCOc2c(Cl)cc(-c3cccs3)cc2Cl)on1
[1]
  IC50: 7.32 µM

## Cc1cc(CCCOc2c(C)cc(-c3noc(C(F)(F)F)n3)cc2C)on1 [PLECONARIL]
[29]
  IC50: ≤ 0.18 µM
[30]
  IC50: ≤ 0.03 µM

## Cc1cc(CCCCCOc2c(Cl)cc(-c3nnn(C)n3)cc2Cl)on1
[1]
  IC50: 1.2 µM

## Cc1cc(CCCCCOc2c(Cl)cc(-c3cccnc3)cc2Cl)on1
[1]
  IC50: 0.97 µM

## Cc1cc(CCCCCOc2c(Cl)cc(-c3cnco3)cc2Cl)on1
[1]
  IC50: 12.8 µM

## Cc1cc(CCCCCCCOc2ccc(C3=NC(C)CO3)cc2)on1 (centres undefined)
[4]
  IC50: 0.1 to 0.12 µM
[3]
  IC50: 0.04 to 0.06 µM

## Cc1cc(CCCOc2c(C)cc(-c3ccccc3C)cc2C)on1
[2]
  IC50: 1.34 µM
[3]
  IC50: 0.009 µM

## Cc1nc(-c2ccc(OCCC(C)CCN3CCN(c4ccncc4)C3=O)cc2)no1 (centres undefined)
[7]
  EC50: 0.0009 µM
